The test system of series [1] is in vivo tumors (RG2 cells). The series is described as follows: Relative tumor volume after treatment with NIR irradiation. Conditions: mice, 24 hours after the treatment. On the procedure:
In Experimental example 7, the targeting efficiency of the drug carrier of the present invention was tested by experiments on in vivo tumors (RG2 cells) of mice. The tumor temperature was also observed while undergoing NIR irradiation. Further, the effects on the volume of the tumors and the mass of the mice were observed through different conditions of treatment.
Referring to FIG. 15A, which is a relative tumor volume vs. time graph of mice after treated by different conditions. The treating conditions were PBS+NIR irradiation, pure DOX+NIR irradiation, non-drug loaded carriers+NIR irradiation, and carriers loaded with DOX+NIR irradiation, and changes in the relative tumor volume along time of which are represented by lines 910, 920, 930, and 940, respectively. The relative tumor volume was observed after 24 hours later of the treatment, and used the tumor volume right after the treatment as a base. […] As for the treatments of the PBS+NIR irradiation, i.e. line 910, and the pure DOX+NIR irradiation, i.e. line 920, the tumor volumes were increased. […] The treatment of the PBS+NIR irradiation, i.e. line 910, could not treat the tumor because there was no drug being injected. The treatment of the pure DOX+NIR irradiation, i.e. line 920, was difficult to reach the tumor region to have the effect of therapy because the drug was not encapsulated in carriers. […]

The next series has as its system RG2 cells. The series is described as follows: Toxicity tests for photothermal therapy in RG2 cells.
A short description of series [2]: Mass of mice after treatment. Conditions: with NIR irradiation. The class given is in vivo. The text has this: Further, referring to FIG. 15B, which is a mass vs. time graph of mice after treated by different conditions. The treating conditions were PBS+NIR irradiation, pure DOX+NIR irradiation, non-drug loaded carriers+NIR irradiation, and carriers loaded with DOX+NIR irradiation, and changes in the mass of the mice along time of which are represented by lines 950, 960, 970, and 980, respectively.

The structures appear in SMILES notation. ≈ marks a conversion by molar mass, not a printed value.

For `COc1cccc2c1C(=O)c1c(O)c3c(c(O)c1C2=O)C[C@@](O)(C(=O)CO)C[C@@H]3O[C@H]1C[C@H](N)[C@H](O)[C@H](C)O1` [DOX, doxorubicin], the relative tumor volume entry in series [1] is “increased”. For the same compound, in the series with RG2 cells (RG2 cells, pure DOX 0.25 μg/mL (bar 840)), the cell death entry is listed as “about 50%”. Moreover, the “cell viability at 0.05 μg/mL DOX compared with 0.25 μg/mL” value with RG2 cells (RG2 cells, without NIR irradiation (bars 870, 880)) is “increased”. The IC50 with RG2 cells (Rattus norvegicus, RG2, read-out: half maximal inhibitory concentration (IC50)) was approximately 0.25 µg/mL (≈ 0.46 µM). For the same compound, the “mass of mice over time” value in series [2] is recorded as “no obvious difference in mass”.

These data come from patent publication US20160089443A1, “PROTEIN-GRAPHENE NANOCOMPOSITE DRUG CARRIER” (NATIONAL CHIAO TUNG UNIVERSITY, priority 2014, published 2016).
